Source: article PMC7531004, “Discovery of gramicidin A analogues with altered activities by multidimensional screening of a one-bead-one-compound library” (Nature Communications, 2020)
Where a SMILES comes first, the peptide text is derived from it. [ ]: non-standard residue; d: D form. The star is where a group is joined. NHCH2CH2OH = OCCN*; For = O=C*

Columns and labels:
[1] = H+/Na+ transport assay of bead-derived peptides (one-point); format: biochemical; parameters: key: relative activity; mean of two control wells = 1.00; details: bead-derived peptide solution, EYPC/EYPG LUVs;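 further: relative to parent gramicidin A activity set to 1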
Protocol: (§1) Each type of assay must be simplified and miniaturized to assess the activities of the library peptides in a 96-well format for the high-throughput screening.
H+/Na+ transport assay of bead-derived peptides.1,2,3 Trisodium 8-hydroxypyrene-1,3,6-trisulfonate
mini-extruder apparatus (Avanti Polar Lipids).
28.9 µmol) in CHCl3 (225 µL) and egg yolk phosphatidylglycerol (1.20 mg, 1.56 µmol) in CHCl3 (60.0 µL)
The thin film was hydrated and
1.0 mM pyranine) by sonication.
A suspension of the LUVs was immediately
used for the H+/Na+ transport assay.
The diluted solution of peptide
flat-bottom 96-well plate (655086, Greiner bio-one).
was vortexed at room temperature for 30 min.
(5/95, 3.0 µL) and the LUV suspension were mixed in each plate to determine 100% lysis. The untreated
LUV suspension was used to determine 0% lysis.
normalized against 100% lysis by Triton X-100 (Imax) and 0% lysis (I0) as following, where Ix is the
fluorescence intensity (Supplementary Equation 2).
I = 100 × (Ix – I0) / (Imax – I0) (2)
The mean value of the two control wells was set to 1.00. […]

[2] = test system: P388 mouse leukemia cells; details: 92 h
Source text: Each type of assay must be simplified and miniaturized to assess the activities of the library peptides in a 96-well format for the high-throughput screening. […]
Mammalian cytotoxicity assay of bead-derived peptides . P388 cells were obtained from Institute of
Development Aging and Cancer (Tohoku University). The cells were maintained with growth medium
[RPMI1640 with phenol red ( Fujifilm Wako Pure Chemical) supplemented with 10% heat -inactivated fetal
bovine serum, pe nicillin G (100 units/mL), and streptomycin (100 µg/mL)] under atmosphere of 5% CO 2 at
The collected cells were resuspended into
the growth medium at 2 × 10^4 cells/mL. The stock solutions of the peptide library were 250-fold diluted
with the growth medium. Aliquots of the medium (100 µL) containing peptides and the latter medium
containing P388 cells (100 µL) were mixed in a 96-well cell culture plate (TR5003, TrueLine). The final
concentration of P388 cells was 1 × 10^4 cells/mL. After incubation under atmosphere of 5% CO2 at 37 °C
for 92 h, the numbers of viable cells were determined by
2-(4-iodophenyl)-3-(4-nitrophenyl)-5-(2,4-disulfophenyl)-2H-tetrazolium, monosodium salt (WST-1) assay.
A solution of 1-methoxy-5-methylphenazinium methyl sulfate (1-methoxy PMS) and WST-1 in the growth
medium (1-methoxy PMS 0.70 mg/mL in Milli-Q/WST-1 3.6 mg/mL in pH 7.4 HEPES buffer = 1/9) was
added to each well of the plate (10.0 µL/well). The plate was incubated for 4 h under atmosphere of 5% CO2
at 37 °C. The absorbance of each well at 415 nm was measured using a Benchmark microplate reader
(Bio-Rad). The cytotoxicities were evaluated as cell viability (%). […]

[3] = test system: Streptococcus pyogenes SSI-9; assay: Antibacterial activity assay of bead-derived peptides (three concentrations); format: cell-based; parameters: key: +++: inhibition by the 640-fold diluted peptide solution; ++: inhibition by the 160-fold diluted solution; +: inhibition by the 40-fold diluted solution; -: no inhibition; details: S. pyogenes, bead-derived peptide solution, three concentrations
Protocol: as §1
Next, the peptides in groups A and B were subjected to the antibacterial assay and structural determination. Three peptide concentrations were applied to evaluate the growth inhibition of S. pyogenes and determine the antibacterial activity. […] Finally, the structures of the peptides were determined. […]
Antibacterial activity assay of bead-derived peptides. The stock solution of the peptide library was 4- and […]
16-fold diluted with DMSO. The non-diluted stock solution, 4-fold diluted solution, and 16-fold diluted […]
solution were transferred to the 96-well round-bottom plate (3367, Corning, 1.0 µL/well). To the solution of […]
peptide in each well was added a suspension of Streptococcus pyogenes SSI-9 strain in cation adjusted […]
Mueller Hinton Broth [40.0 µL, 2 × 10^5 colony forming units (CFU), 21 g/L Mueller Hinton Broth (Difco), 50 […]
mg/L Ca2+ (adjusted with CaCl2•2H2O), and 25 mg/L Mg2+ (adjusted with MgCl2•6H2O)] supplemented with […]
5% laked horse blood (Nippon Biotest Laboratories). The plate was incubated at 37 °C for 18 h, and the precipitation of the grown cells was examined. […]

Structure (SMILES)	H+/Na+ transport activity normalized against the value of 1 (1.00) [1]	cell viability/% [2]	antibacterial activity [3]
CC(C)C[C@@H](NC(=O)[C@H](C)NC(=O)CNC(=O)[C@@H](NC=O)C(C)C)C(=O)N[C@@H](C)C(=O)N[C@@H](C(=O)N[C@H](C(=O)N[C@@H](C(=O)N[C@@H](Cc1c[nH]c2ccccc12)C(=O)N[C@H](CC(C)C)C(=O)N[C@@H](Cc1c[nH]c2ccccc12)C(=O)N[C@H](CC(C)C)C(=O)N[C@@H](Cc1c[nH]c2ccccc12)C(=O)N[C@H](CC(C)C)C(=O)N[C@@H](Cc1c[nH]c2ccccc12)C(=O)NCCO)C(C)C)C(C)C)C(C)C [compound 9000] (For-VGA[dL]A[dV]V[dV]W[dL]W[dL]W[dL]W-NHCH2CH2OH)	1.21	7.4%	+
CC(C)C[C@@H](NC(=O)[C@H](C)NC(=O)CNC(=O)[C@@H](NC=O)C(C)C)C(=O)N[C@@H](C)C(=O)N[C@H](CC(C)C)C(=O)N[C@H](C(=O)N[C@@H](C(=O)N[C@@H](Cc1c[nH]c2ccccc12)C(=O)N[C@H](CC(C)C)C(=O)N[C@@H](Cc1c[nH]c2ccccc12)C(=O)N[C@@H](C(=O)N[C@@H](Cc1c[nH]c2ccccc12)C(=O)N[C@@H](C(=O)N[C@@H](Cc1c[nH]c2ccccc12)C(=O)NCCO)C(C)C)C(C)C)C(C)C)C(C)C [compound 9607] (For-VGA[dL]A[dL]V[dV]W[dL]W[dV]W[dV]W-NHCH2CH2OH)	1.03	48.6%	+
CC(C)C[C@@H](NC(=O)[C@H](C)NC(=O)CNC(=O)[C@@H](NC=O)C(C)C)C(=O)N[C@@H](C)C(=O)N[C@H](CC(C)C)C(=O)N[C@H](C(=O)N[C@H](CC(C)C)C(=O)N[C@@H](Cc1c[nH]c2ccccc12)C(=O)N[C@H](CC(C)C)C(=O)N[C@@H](Cc1c[nH]c2ccccc12)C(=O)N[C@H](CC(C)C)C(=O)N[C@@H](Cc1c[nH]c2ccccc12)C(=O)N[C@@H](C(=O)N[C@@H](Cc1c[nH]c2ccccc12)C(=O)NCCO)C(C)C)C(C)C [compound 2205] (For-VGA[dL]A[dL]V[dL]W[dL]W[dL]W[dV]W-NHCH2CH2OH)	1.01	0.0%	-
CNC(=O)C[C@@H](NC(=O)[C@@H](NC(=O)[C@@H](CC(C)C)NC(=O)[C@H](C)NC(=O)[C@@H](CC(C)C)NC(=O)[C@H](C)NC(=O)CNC(=O)[C@@H](NC=O)C(C)C)C(C)C)C(=O)N[C@@H](Cc1c[nH]c2ccccc12)C(=O)N[C@H](CC(C)C)C(=O)N[C@@H](Cc1c[nH]c2ccccc12)C(=O)N[C@@H](C(=O)N[C@@H](Cc1c[nH]c2ccccc12)C(=O)N[C@H](CC(C)C)C(=O)N[C@@H](Cc1c[nH]c2ccccc12)C(=O)NCCO)C(C)C [compound 173] (For-VGA[dL]A[dL]V[dD](NHMe)W[dL]W[dV]W[dL]W-NHCH2CH2OH)	1.07	100.0%	-
CNC(=O)C[C@@H](NC(=O)[C@@H](NC(=O)[C@@H](CC(C)C)NC(=O)[C@H](C)NC(=O)[C@@H](CC(C)C)NC(=O)[C@H](C)NC(=O)CNC(=O)[C@@H](NC=O)C(C)C)C(C)C)C(=O)N[C@@H](Cc1c[nH]c2ccccc12)C(=O)N[C@H](CC(C)C)C(=O)N[C@@H](Cc1c[nH]c2ccccc12)C(=O)N[C@H](CC(C)C)C(=O)N[C@@H](Cc1c[nH]c2ccccc12)C(=O)N[C@@H](C(=O)N[C@@H](Cc1c[nH]c2ccccc12)C(=O)NCCO)[C@H](C)O [compound 2967] (For-VGA[dL]A[dL]V[dD](NHMe)W[dL]W[dL]W[dT]W-NHCH2CH2OH)	1.04	100.0%	-
CC(C)C[C@@H](NC(=O)[C@H](Cc1c[nH]c2ccccc12)NC(=O)[C@H](NC(=O)[C@H](Cc1c[nH]c2ccccc12)NC(=O)[C@@H](CC(C)C)NC(=O)[C@@H](NC(=O)[C@H](NC(=O)[C@H](C)NC(=O)[C@H](NC(=O)[C@H](C)NC(=O)CNC(=O)[C@@H](NC=O)C(C)C)C(C)C)C(C)C)C(C)C)C(C)C)C(=O)N[C@@H](Cc1c[nH]c2ccccc12)C(=O)N[C@@H](C(=O)N[C@@H](Cc1c[nH]c2ccccc12)C(=O)NCCO)C(C)C [compound 2554] (For-VGA[dV]A[dV]V[dL]W[dV]W[dL]W[dV]W-NHCH2CH2OH)	1.06	9.2%	++
CC(C)C[C@@H](NC(=O)[C@H](Cc1c[nH]c2ccccc12)NC(=O)[C@H](NC(=O)[C@H](Cc1c[nH]c2ccccc12)NC(=O)[C@@H](CC(C)C)NC(=O)[C@@H](NC(=O)[C@H](NC(=O)[C@H](C)NC(=O)[C@H](NC(=O)[C@H](C)NC(=O)CNC(=O)[C@@H](NC=O)C(C)C)[C@H](C)O)C(C)C)C(C)C)C(C)C)C(=O)N[C@@H](Cc1c[nH]c2ccccc12)C(=O)N[C@@H](C(=O)N[C@@H](Cc1c[nH]c2ccccc12)C(=O)NCCO)C(C)C [compound 182] (For-VGA[dT]A[dV]V[dL]W[dV]W[dL]W[dV]W-NHCH2CH2OH)	1.16	100.0%	-
CC(C)C[C@@H](NC(=O)[C@H](C)NC(=O)[C@H](NC(=O)[C@H](C)NC(=O)CNC(=O)[C@@H](NC=O)C(C)C)[C@H](C)O)C(=O)N[C@H](C(=O)N[C@H](CC(C)C)C(=O)N[C@@H](Cc1c[nH]c2ccccc12)C(=O)N[C@@H](C(=O)N[C@@H](Cc1c[nH]c2ccccc12)C(=O)N[C@H](CC(C)C)C(=O)N[C@@H](Cc1c[nH]c2ccccc12)C(=O)N[C@H](CC(C)C)C(=O)N[C@@H](Cc1c[nH]c2ccccc12)C(=O)NCCO)[C@H](C)O)C(C)C [compound 5215] (For-VGA[dT]A[dL]V[dL]W[dT]W[dL]W[dL]W-NHCH2CH2OH)	1.33	100.0%	-
CC(C)C[C@@H](NC(=O)[C@H](C)NC(=O)CNC(=O)[C@@H](NC=O)C(C)C)C(=O)N[C@@H](C)C(=O)N[C@@H](C(=O)N[C@H](C(=O)N[C@@H](C(=O)N[C@@H](Cc1c[nH]c2ccccc12)C(=O)N[C@@H](C(=O)N[C@@H](Cc1c[nH]c2ccccc12)C(=O)N[C@H](CC(C)C)C(=O)N[C@@H](Cc1c[nH]c2ccccc12)C(=O)N[C@@H](C(=O)N[C@@H](Cc1c[nH]c2ccccc12)C(=O)NCCO)C(C)C)C(C)C)[C@H](C)O)C(C)C)C(C)C [compound 5167] (For-VGA[dL]A[dV]V[dT]W[dV]W[dL]W[dV]W-NHCH2CH2OH)	1.33	100.0%	-
CNC(=O)C[C@@H](NC(=O)[C@@H](NC(=O)[C@@H](CC(C)C)NC(=O)[C@H](C)NC(=O)[C@H](NC(=O)[C@H](C)NC(=O)CNC(=O)[C@@H](NC=O)C(C)C)C(C)C)C(C)C)C(=O)N[C@@H](Cc1c[nH]c2ccccc12)C(=O)N[C@H](CC(C)C)C(=O)N[C@@H](Cc1c[nH]c2ccccc12)C(=O)N[C@@H](C(=O)N[C@@H](Cc1c[nH]c2ccccc12)C(=O)N[C@H](CC(C)C)C(=O)N[C@@H](Cc1c[nH]c2ccccc12)C(=O)NCCO)C(C)C [compound 12687] (For-VGA[dV]A[dL]V[dD](NHMe)W[dL]W[dV]W[dL]W-NHCH2CH2OH)	1.29	100.0%	-
